The term melting point denotes the temperature, or range, at which the solid turns liquid.

Data set [1] addresses human dopamine D2 receptor (Homo sapiens, UniProt P14416). As to conditions: cited from earlier work.

Sequence of human dopamine D2 receptor (P14416 whole entry): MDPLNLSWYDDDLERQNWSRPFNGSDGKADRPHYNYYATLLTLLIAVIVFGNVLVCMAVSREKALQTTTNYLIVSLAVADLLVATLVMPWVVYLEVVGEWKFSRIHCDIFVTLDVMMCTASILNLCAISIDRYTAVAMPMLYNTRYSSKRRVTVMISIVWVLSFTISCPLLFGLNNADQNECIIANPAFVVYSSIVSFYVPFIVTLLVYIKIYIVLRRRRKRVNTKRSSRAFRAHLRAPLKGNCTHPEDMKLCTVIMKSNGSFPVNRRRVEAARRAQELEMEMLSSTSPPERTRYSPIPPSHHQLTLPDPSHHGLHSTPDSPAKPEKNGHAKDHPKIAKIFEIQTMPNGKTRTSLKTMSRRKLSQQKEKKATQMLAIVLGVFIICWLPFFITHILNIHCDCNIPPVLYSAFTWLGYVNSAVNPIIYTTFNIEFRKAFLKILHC

`O=S(=O)(c1ccc(Cn2cnnn2)cc1)C1CCN(CCc2ccc(F)cc2F)CC1` [Example 12, 1-[2-(2,4-Difluorophenyl)ethyl]-4-[4-(tetrazol-1-ylmethyl)phenylsulphonyl]piperidine]: the melting point was in the range of 168 to 169 °C.
For `COc1cccc(C(O)C2CCN(CCc3ccc(F)cc3)CC2)c1OC` (stereo not drawn) [MDL-100,907, (+)-α-(2,3-dimethoxyphenyl)-1-[2-(4-fluorophenyl)ethyl]-4-piperidinemethanol], in data set [1], the “activity at the human dopamine D2 receptor” value is “essentially devoid of activity”.
